{"source": "patent US10556943B2", "about": "“HLA-DR binding peptides and their uses” (priority 2007, dated 2020)", "key": {"patient-derived PBMC": {"tested_on": "patient-derived PBMC", "experiment": "10-day interferon-gamma ELIspot on PBMC of patients and healthy donors", "assay_type": "cell-based, human", "conditions": "for % = Percent of patients with responses: ELIspot, patients with either breast or ovarian cancer; for fraction of patients that had mean T cell values above the cutoff: cutoff = mean and two standard deviations of normal healthy individuals", "text": "Enzyme-linked immunosorbent spot assay.\nAn interferon-gamma ELIspot assay was used to assess immunity to the indiscriminate binding peptides in 48 patients with either breast or ovarian cancer and 18 healthy controls.\nUsing an ELIspot assay with a limit of detection of approximately 1:100,000 antigen-specific T cells per million PBMC, patient-derived PBMC were screened for reactivity against all of the HLA-DR binding peptides."}, "short term T cell lines": {"tested_on": "short term T cell lines", "experiment": "IFN-γ ELISpot analysis of short term T cell lines (natural processing)", "assay_type": "cell-based, human", "conditions": "T cell lines respond to peptide and protein fragment; FIGS. 5, 6"}, "purified HLA DRB1*0701": {"target": "T1, purified HLA DRB1*0701 (Homo sapiens, UniProt P01903+P01911, A100R/A102G/A103Q/D57E/D86V/E43K/F76Y/K127E/L162R/M171V/P40G/Q125H/Q99D/R33Q/R42Y/R54Q/S133A/S66F/T210M/V115G/Y107V/Y59L/Y89S)", "T1 construct": "MHC molecules utilized were purified from EBV transformed homozygous cell lines or single MHC allele transfected 721.221, C1R, or fibroblast lines; made in house; host or cells: EBV transformed homozygous cell lines or single MHC allele transfected 721.221, C1R, or fibroblast lines", "experiment": "HLA-DR radioligand binding inhibition assay, DRB1*0701", "description": "(§1) Fifteen distinct HLA-DR molecules were used in quantitative assays to measure the binding of peptides to solubilized HLA-DR molecules. […] Briefly, columns of inactivated Sepharose CL4B and Protein A Sepharose were used as pre-columns. HLA-DR molecules were captured by passage of lysates over LB3.1 monoclonal antibody (anti-HLA-DRA) columns. Antibody columns were washed with 10 mM Tris-HCL, pH8.0 with 1% (v/v) NP-40, followed by PBS containing 0.4% (w/v) n-octylglucoside.\n(§2) Briefly, 1-10 nM of radiolabeled peptide was co-incubated for 2 days at either room temperature or 37° C. with 1 μM to 1 nM purified HLA-DR molecules in the presence of a cocktail of protease inhibitors. Assays were performed at various pH conditions, ranging from pH 4 to pH 7. […] After incubation, the percentage of HLA-DR-bound radioactivity is determined by capturing HLA-DR/peptide complexes on Optiplates (Packard Instruments, Meriden, Conn.) coated with the LB3.1 antibody and determining bound counts per minute using the TopCount microscintillation counter (Packard Instruments)."}, "purified HLA DRB1*0404": {"target": "T2, purified HLA DRB1*0404 (Homo sapiens, UniProt P01903+P01911, A100R/A169T/F76Y/I96L/K127E/L162R/M171V/N62H/P40V/Q125Y/R42H/S133A/S149N/S66Y/V209L/W38E)", "T2 construct": "MHC molecules utilized were purified from EBV transformed homozygous cell lines or single MHC allele transfected 721.221, C1R, or fibroblast lines; made in house; host or cells: EBV transformed homozygous cell lines or single MHC allele transfected 721.221, C1R, or fibroblast lines", "experiment": "HLA-DR radioligand binding inhibition assay, DRB1*0404", "description": "as §1, with “n-octylglucoside. […] The pH was reduced to 8.0 and the eluates were concentrated by centrifugation in Centriprep 30 concentrators at 2000 rpm (Amicon, Beverly, Mass.).” for “n-octylglucoside.”\nas §2, with “Instruments). […] Competitor peptides are tested in 2-4 complete, independent experiments, at concentrations ranging from 30 μg/mL to 300 pg/mL.” for “Instruments).”"}}, "note": "Ends that are not written are not given here.", "data": [{"compound": "CC(C)C[C@H](NC(=O)[C@H](CC(N)=O)NC(=O)[C@H](CO)NC(=O)[C@@H](NC(=O)[C@H](Cc1ccccc1)NC(=O)[C@H](CS)NC(=O)[C@H](C)NC(=O)[C@@H](N)Cc1ccc(O)cc1)C(C)C)C(=O)N[C@@H](C)C(=O)N[C@H](C(=O)NCC(=O)N[C@@H](CCCNC(=N)N)C(=O)N[C@@H](CC(N)=O)C(=O)N[C@@H](CC(N)=O)C(=O)N[C@@H](CO)C(=O)O)[C@@H](C)O", "note": "[Peptide 9019.0141]", "values": [{"measurement": "% = Percent of patients with responses", "setting": "patient-derived PBMC", "value": 25, "unit": "%"}]}, {"compound": "CC[C@H](C)[C@H](NC(=O)[C@H](CC(C)C)NC(=O)[C@H](CCCCN)NC(=O)CNC(=O)[C@@H](N)[C@@H](C)O)C(=O)N[C@@H](CCC(N)=O)C(=O)NCC(=O)N[C@@H](C)C(=O)N1CCC[C@H]1C(=O)N[C@H](C(=O)N[C@H](C(=O)N[C@@H](CCCNC(=N)N)C(=O)NCC(=O)N[C@@H](CC(=O)O)C(=O)N1CCC[C@H]1C(=O)O)[C@@H](C)CC)[C@@H](C)O", "note": "[Peptide 9019.0192]", "values": [{"measurement": "naturally processed and presented antigen", "setting": "short term T cell lines", "value": "naturally processed peptides"}]}, {"compound": "CC[C@H](C)[C@H](NC(=O)[C@H](CCCNC(=N)N)NC(=O)[C@H](CC(C)C)NC(=O)[C@H](CCCNC(=N)N)NC(=O)[C@H](CCC(N)=O)NC(=O)[C@H](CC(C)C)NC(=O)[C@@H]1CCCN1C(=O)[C@@H](NC(=O)[C@H](CCC(N)=O)NC(=O)[C@H](CCCNC(=N)N)NC(=O)[C@@H](NC(=O)[C@H](CCC(N)=O)NC(=O)[C@H](CC(N)=O)NC(=O)[C@@H](N)Cc1c[nH]cn1)C(C)C)C(C)C)C(=O)N[C@H](C(=O)O)C(C)C", "note": "[Peptide 9019.0034]", "values": [{"measurement": "naturally processed and presented antigen", "setting": "short term T cell lines", "value": "naturally processed and presented antigens"}]}, {"compound": "CC[C@H](C)[C@H](NC(=O)[C@H](C)NC(=O)[C@@H](NC(=O)[C@@H]1CCCN1C(=O)[C@@H](NC(=O)[C@@H](N)CCCCN)[C@@H](C)CC)C(C)C)C(=O)N[C@@H](CCCCN)C(=O)N[C@H](C(=O)N[C@@H](CC(C)C)C(=O)N[C@@H](CCCNC(=N)N)C(=O)N[C@@H](CCC(=O)O)C(=O)N[C@@H](CC(N)=O)C(=O)N[C@H](C(=O)N[C@@H](CO)C(=O)N1CCC[C@H]1C(=O)O)[C@@H](C)O)C(C)C", "note": "[Peptide 1622.03]", "values": [{"measurement": "IC50", "setting": "purified HLA DRB1*0701", "value": "> 20", "unit": "µM"}]}, {"compound": "CC(C)C[C@H](NC(=O)[C@H](CC(C)C)NC(=O)[C@H](CC(C)C)NC(=O)[C@H](CC(C)C)NC(=O)[C@H](CC(C)C)NC(=O)[C@H](CC(C)C)NC(=O)[C@@H]1CCCN1)C(=O)NCC(=O)N[C@@H](C)C(=O)N[C@@H](CO)C(=O)NCC(=O)NCC(=O)NCC(=O)NCC(=O)NCC(=O)O", "note": "[Peptide 9019.0177]", "values": [{"measurement": "naturally processed and presented antigen", "setting": "short term T cell lines", "value": "naturally processed peptides"}]}, {"compound": "CC(C)C[C@H](NC(=O)[C@H](CO)NC(=O)[C@H](C)NC(=O)[C@H](CC(N)=O)NC(=O)[C@@H](NC(=O)[C@@H]1CCCN1C(=O)[C@H](CC(C)C)NC(=O)[C@H](Cc1ccc(O)cc1)NC(=O)[C@@H](NC(=O)[C@H](CC(C)C)NC(=O)[C@H](CCC(=O)O)NC(=O)[C@H](CC(C)C)NC(=O)[C@@H](N)CC(N)=O)[C@@H](C)O)[C@@H](C)O)C(=O)N[C@@H](CO)C(=O)N[C@@H](Cc1ccccc1)C(=O)O", "note": "[Peptide 9019.0030]", "values": [{"measurement": "% = Percent of patients with responses", "setting": "patient-derived PBMC", "value": 15, "unit": "%"}, {"measurement": "naturally processed and presented antigen", "setting": "short term T cell lines", "value": "naturally processed and presented antigens"}]}, {"compound": "CC[C@H](C)[C@H](NC(=O)[C@H](CC(=O)O)NC(=O)[C@H](CCCCN)NC(=O)[C@H](Cc1c[nH]c2ccccc12)NC(=O)[C@H](CC(C)C)NC(=O)[C@@H](NC(=O)[C@@H](NC(=O)[C@H](CC(=O)O)NC(=O)[C@H](CCC(N)=O)NC(=O)[C@H](Cc1ccc(O)cc1)NC(=O)[C@H](CS)NC(=O)[C@H](CC(C)C)NC(=O)[C@H](CCC(N)=O)NC(=O)[C@@H]1CCCN1C(=O)[C@@H](N)CC(N)=O)[C@@H](C)O)[C@@H](C)CC)C(=O)O", "note": "[Peptide 9019.0041]", "values": [{"measurement": "IC50", "setting": "purified HLA DRB1*0701", "value": "> 20", "unit": "µM"}]}, {"compound": "CC(C)C[C@H](NC(=O)[C@H](CC(C)C)NC(=O)[C@H](CC(C)C)NC(=O)[C@H](CC(C)C)NC(=O)[C@H](CC(C)C)NC(=O)[C@H](CC(C)C)NC(=O)[C@@H]1CCCN1C(=O)[C@H](CC(C)C)NC(=O)[C@H](CC(C)C)NC(=O)[C@@H]1CCCN1C(=O)[C@H](CC(C)C)NC(=O)[C@@H](N)CC(C)C)C(=O)NCC(=O)N[C@@H](C)C(=O)N[C@@H](CO)C(=O)O", "note": "[Peptide 9019.0176]", "values": [{"measurement": "naturally processed and presented antigen", "setting": "short term T cell lines", "value": "naturally processed peptides"}]}, {"compound": "GDPLNNTTPVTGASP [Peptide 9019.0036]", "values": [{"measurement": "IC50", "setting": "purified HLA DRB1*0701", "value": 13.2, "unit": "µM"}]}, {"compound": "CC(C)C[C@H](NC(=O)[C@@H]1CCCN1C(=O)[C@@H](NC(=O)[C@@H](NC(=O)[C@@H]1CCCN1C(=O)[C@H](CC(=O)O)NC(=O)[C@H](CCC(=O)O)NC(=O)[C@H](CO)NC(=O)[C@H](Cc1ccc(O)cc1)NC(=O)[C@H](CCCNC(=N)N)NC(=O)[C@H](CCC(N)=O)NC(=O)[C@@H](N)CC(C)C)[C@@H](C)O)C(C)C)C(=O)N1CCC[C@H]1C(=O)N[C@@H](CO)C(=O)N[C@@H](CCC(=O)O)C(=O)O", "note": "[Peptide 9019.0099]", "values": [{"measurement": "IC50", "setting": "purified HLA DRB1*0404", "value": 13.1, "unit": "µM"}]}, {"compound": "CC[C@H](C)[C@H](N)C(=O)N[C@@H](CCCCN)C(=O)N[C@@H](Cc1c[nH]c2ccccc12)C(=O)N[C@@H](CCSC)C(=O)N[C@@H](C)C(=O)N[C@@H](CC(C)C)C(=O)N[C@@H](CCC(=O)O)C(=O)N[C@@H](CO)C(=O)N[C@H](C(=O)N[C@@H](CC(C)C)C(=O)N[C@@H](CCCNC(=N)N)C(=O)N[C@@H](CCCNC(=N)N)C(=O)N[C@@H](CCCNC(=N)N)C(=O)N[C@@H](Cc1ccccc1)C(=O)N[C@H](C(=O)O)[C@@H](C)O)[C@@H](C)CC", "note": "[Peptide 9019.0003]", "values": [{"measurement": "fraction of patients that had mean T cell values above the cutoff", "setting": "patient-derived PBMC; FIG. 1", "value": 4, "unit": "%"}, {"measurement": "patient response rate on exclusion of one healthy individual's data point", "setting": "patient-derived PBMC; FIG. 1, robust healthy responder excluded from cutoff", "value": 15, "unit": "%"}]}, {"compound": "CC[C@H](C)[C@H](NC(=O)[C@@H]1CCCN1)C(=O)N[C@@H](CCCCN)C(=O)N[C@@H](Cc1c[nH]c2ccccc12)C(=O)N[C@@H](CCSC)C(=O)N[C@@H](C)C(=O)N[C@@H](CC(C)C)C(=O)N[C@@H](CCC(=O)O)C(=O)N[C@@H](CO)C(=O)N[C@H](C(=O)N[C@@H](CC(C)C)C(=O)N[C@@H](CCCNC(=N)N)C(=O)N[C@@H](CCCNC(=N)N)C(=O)N[C@@H](CCCNC(=N)N)C(=O)N[C@@H](Cc1ccccc1)C(=O)O)[C@@H](C)CC", "note": "[Peptide 9019.0087]", "values": [{"measurement": "% = Percent of patients with responses", "setting": "patient-derived PBMC", "value": 25, "unit": "%"}, {"measurement": "fraction of patients that had mean T cell values above the cutoff", "setting": "patient-derived PBMC; FIG. 1", "value": 25, "unit": "%"}, {"measurement": "naturally processed and presented antigen", "setting": "short term T cell lines", "value": "naturally processed and presented antigens"}]}, {"compound": "CC[C@H](C)[C@H](NC(=O)[C@H](Cc1c[nH]cn1)NC(=O)[C@H](CC(C)C)NC(=O)[C@H](CO)NC(=O)[C@H](Cc1ccc(O)cc1)NC(=O)[C@H](CC(C)C)NC(=O)[C@H](Cc1c[nH]cn1)NC(=O)[C@H](CCC(=O)O)NC(=O)[C@H](CC(C)C)NC(=O)[C@@H]1CCCN1C(=O)CNC(=O)[C@H](CCCNC(=N)N)NC(=O)[C@@H](N)CCC(=O)O)C(=O)N1CCC[C@H]1C(=O)N[C@@H](CC(N)=O)C(=O)O", "note": "[Peptide 9019.0190]", "values": [{"measurement": "% = Percent of patients with responses", "setting": "patient-derived PBMC", "value": 23, "unit": "%"}, {"measurement": "naturally processed and presented antigen", "setting": "short term T cell lines", "value": "naturally processed peptides"}]}, {"compound": "CC[C@H](C)[C@H](NC(=O)[C@@H](NC(=O)[C@H](CC(C)C)NC(=O)[C@H](CCCCN)NC(=O)[C@H](C)NC(=O)[C@@H](NC(=O)[C@@H](NC(=O)[C@@H]1CCCN1C(=O)[C@@H]1CCCN1C(=O)[C@H](CC(N)=O)NC(=O)[C@H](Cc1c[nH]c2ccccc12)NC(=O)[C@H](Cc1ccccc1)NC(=O)[C@@H](NC(=O)[C@H](CC(C)C)NC(=O)[C@@H](N)CC(C)C)[C@@H](C)O)[C@@H](C)O)[C@@H](C)O)[C@@H](C)O)C(=O)O", "note": "[Peptide 9019.0105]", "values": [{"measurement": "% = Percent of patients with responses", "setting": "patient-derived PBMC", "value": 17, "unit": "%"}]}]}
